# System: Alternaria solani
# Test: Activity against early blight of tomato caused by Alternaria solani (protective spray, potted plants)
# Format: in vivo
# Details: 63 ppm active compound, tomato cultivar Goldene Prinzessin, infected next day, assessed after 5 days; untreated plants 90% infected
# Protocol: The active compounds were prepared as a stock solution comprising 0.25% by weight of active compound in acetone or DMSO. 1% by weight of the emulsifier Uniperol® EL (wetting agent having emulsifying and dispersing action based on ethoxylated alkylphenols) was added to this solution, and the mixture was diluted with water to the desired concentration. Leaves of potted plants of the cultivar “Goldene Prinzessin” were sprayed to run off point with an aqueous suspension having the concentration of active compounds stated below. The next day, the leaves were infected with an aqueous […] suspension of Alternaria solani in 2% biomalt solution having a density of 0.17×10^6 spores/ml. The plants were then placed in a water-vapor-saturated chamber at temperatures of between 20 and 22° C. After 5 days, the disease on the leaves of the untreated, but infected control plants had developed to such an extent that the infection could be determined visually in %.
smiles,measurement,value
"CCC(C)Nc1c(-c2ccc(OC)cc2Cl)c(Cl)nc2ncnn12 (racemic) [Compound I-3, 5-chloro-6-(2-chloro4-methoxyphenyl)-7-but-2-ylamino-[1,2,4]-triazolo[1,5-a]pyrimidine]","infection of the leaves, determined visually in %",no infection
